No end group written: not given here.
Assays:
Type in all cases: in vivo, C57b1/6 mice
bone marrow cells = experiment: Viable bone marrow cell count in gamma-irradiated mice
From the text: (§1) In order to ascertain protective and regenerative effects of Substance-P on bone marrow, 8-week-old C57b1/6 mice were purchased as experimental animals and divided into three groups, each consisting of 6 animals (n=6): two experimental groups (administration of a test drug before and after induction of bone marrow damage) and a control group. For this purpose, bone marrow damage was induced by radiation in animals.
(§2) For the group used to confirm bone marrow-protective effects of Substance-P, 0.1 nmol/g of Substance-P was injected into caudal vein of mice, 1 day prior to radiation. 24 hours later, animals were irradiated with a gamma irradiator at a dose of 4 Gy. 4 hours after irradiation, 0.1 nmol/g of Substance-P diluted in PBS was injected once more into caudal vein of mice. Substance-P was diluted in PBS prior to use thereof.
(§3) For the group used to confirm bone marrow-regenerative effects of Substance-P, 0.1 nmol/g of Substance-P was intravenously administered to caudal veins of mice immediately after animals were irradiated with gamma rays. 24 hours later, Substance-P was intravenously administered once more to animals.
(§4) Bone marrow cells were isolated from animals 3 and 7 days after irradiation. For this purpose, femurs were isolated from mice and defatted to obtain the femoral bones only. A medium was allowed to flow from one end of the bone to the other end thereof using a 26-gauge syringe. This procedure was repeated five times to ensure that bone marrow cells were completely extracted from the bone. The cells were pooled in a tube, and centrifuged at 1500 rpm for 5 min and washed two times with PBS. The viable cell count was performed and compared between the drug-administered groups (administration of Substance-P before and after irradiation) and the non-administered group.

blood cells = experiment: Viable blood cell count in gamma-irradiated mice; conditions: Substance-P administered before or after radiation-induced bone marrow damage
From the text: as §1, §2, §3
Blood cells were isolated from animals 3 and 7 days after irradiation treatment was complete. For this purpose, whole blood (WB) was isolated from abdominal vena cava using a 26-gauge syringe. […]

[1] = system: hematopoietic stem cell colony formation of bone marrow cells; experiment: CFU assay of bone marrow cells from irradiated mice in HSC-CFU media
From the text: as §1, §2, §3, §4
When bone marrow cells and blood cells were prepared, the cells were inoculated onto 35 mm plates at a density of 3×10^3 bone marrow cells/plate and 5×10^6 blood cells/plate, respectively and cultured in hematopoietic stem cell-colony forming unit media (HSC-CFU media, available from Miltenyi). The cells were cultured without change of the culture medium for two weeks while a colony count was performed daily.

Substance: Substance P (RPKPQQFFGLM; not fully specified; ends and bridges not checked; UniProt P20366 58-68, looked up) [Substance-P]
- viable bone marrow cell count vs non-administered group (bone marrow cells; Substance-P 0.1 nmol/g i.v. 1 day prior to and 4 h after 4 Gy irradiation, 3rd post-irradiation day): no significant difference
- viable bone marrow cell count vs non-administered group (bone marrow cells; Substance-P 0.1 nmol/g i.v. 1 day prior to and 4 h after 4 Gy irradiation, after 7 days): about two-fold higher
- viable bone marrow cell count vs non-administered group (bone marrow cells; Substance-P 0.1 nmol/g i.v. immediately after irradiation and 24 h later, 3rd post-irradiation day): no significant difference
- viable bone marrow cell count vs non-administered group (bone marrow cells; Substance-P 0.1 nmol/g i.v. immediately after irradiation and 24 h later, after 7 days): about 2.5 fold
- number of blood cells vs non-administered group (blood cells): significantly higher
- day from which colony formation was observable ([1]; Substance-P after irradiation): 5 post-irradiation day
- colony count vs non-administered group ([1]; Substance-P after irradiation, 2-week culture, 14th post-irradiation day): about 3 fold
- colony formation ([1]; Substance-P after irradiation, 3rd post-irradiation day): no colony formation
- colony count ([1]; Substance-P after irradiation, 7th post-irradiation day): significantly increased
- colony count vs non-administered group ([1]; Substance-P prior to irradiation, 2-week culture, 14th post-irradiation day): about 9 fold
- colony count vs non-administered group ([1]; Substance-P prior to irradiation, 3rd post-irradiation day): higher colony counts
- colony count vs non-administered group ([1]; Substance-P prior to irradiation, 7th post-irradiation day): higher colony counts
- colony count vs non-administered group ([1]; Substance-P prior to irradiation, immediately after irradiation): higher colony counts

Reference: US20100098671A1, “COMPOSITION FOR PREVENTION OR TREATMENT OF BONE MARROW DAMAGE” (MODERN CELL & TISSUE TECHNOLOGIES INC., priority 2007, published 2010)
